Data on twelve molecules can be found in patent publication US5502035A, “N-terminus modified analogs of LHRH” (Tap Holdings Inc., priority 1994, dated 1996).

This assay concerns the target T1, LHRH (Rattus norvegicus, UniProt P30969).
T1 construct: endogenous in cells; host or cells: rat pituitary cells (own knowledge of the cited Haviv 1989 method)
T1 sequence (P30969 1-327): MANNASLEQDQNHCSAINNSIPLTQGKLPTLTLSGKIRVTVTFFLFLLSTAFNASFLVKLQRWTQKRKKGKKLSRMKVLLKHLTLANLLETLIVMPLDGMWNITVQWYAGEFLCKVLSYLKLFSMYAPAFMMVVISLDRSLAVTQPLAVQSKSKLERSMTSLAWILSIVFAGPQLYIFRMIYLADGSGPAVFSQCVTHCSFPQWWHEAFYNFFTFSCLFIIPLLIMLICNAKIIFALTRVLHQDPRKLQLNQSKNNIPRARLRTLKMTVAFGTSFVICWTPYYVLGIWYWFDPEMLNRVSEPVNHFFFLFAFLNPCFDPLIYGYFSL
Kind of assay: in vitro test for LHRH antagonist potency (pA2). It counts as cell-based. The note with it: negative logarithm of the antagonist concentration required to shift the response curve produced by the agonist leuprolide to two-fold higher concentration. As for the experimental part:
Representative compounds of the present invention were evaluated in an in vitro test for LHRH antagonist potency (pA2). The test employed the method detailed in F. Haviv, et al. J. Med. Chem., 32:2340-2344 (1989). The values of pA2 are the negative logarithms of the concentration of the particular antagonist test compound required to shift the response curve produced by the agonist leuprolide to two-fold higher concentration. (Leuprolide is the LHRH agonist having the structure 5-oxo-Pro^1 -His^2 -Trp^3 -Ser^4 -Tyr^5 -D-Leu^6 -Leu^7 -Arg^8 -Pro^9 -NHEt and is disclosed and claimed in U.S. Pat. No. 4,005,063.) Typically pA2 values of 9.5 or greater are indicative of good LHRH antagonist potency, with values of 10.0 or greater being preferred.

Non-standard residues stand in square brackets, D forms with d. Residues, ends and D or L forms follow the SMILES beside them. *: point of attachment. Shikimoyl = O=C(C1=C[C@@H](O)[C@@H](O)[C@H](O)C1)*; dPhe(4-Cl) = N[C@H](Cc1ccc(Cl)cc1)C(=O)O; d2Nal = N[C@H](Cc1ccc2ccccc2c1)C(=O)O; Lys(iPr) = CC(C)NCCCC[C@H](N)C(=O)O; NMeY = CN[C@@H](Cc1ccc(O)cc1)C(=O)O; d3Pal = N[C@H](Cc1cccnc1)C(=O)O; Isonicotinoyl = O=C(c1ccncc1)*; Salicyloyl = O=C(c1ccccc1O)*; Nicotinoyl = O=C(c1cccnc1)*; Picolinoyl = O=C(c1ccccn1)*; 2Furoyl = O=C(c1ccco1)*; X6 = O=C(c1ccoc1)*; βAla = NCCC(=O)O

Turning to `CC(=O)N[C@H](Cc1ccc(O)cc1)C(=O)N[C@H](Cc1ccc2ccccc2c1)C(=O)N[C@H](Cc1ccc(Cl)cc1)C(=O)N[C@H](Cc1cccnc1)C(=O)N[C@@H](CO)C(=O)N(C)[C@@H](Cc1ccc(O)cc1)C(=O)N[C@H](CCCCNC(=O)c1cccnc1)C(=O)N[C@@H](CC(C)C)C(=O)N[C@@H](CCCCNC(C)C)C(=O)N1CCC[C@H]1C(=O)N[C@H](C)C(N)=O` [Example 1, N-Ac-DTyr-D2Nal-D4ClPhe-D3Pal-Ser-NMeTyr-DLys(Nicotinyl)-Leu-Lys(N-epsilon- Isopropyl) -Pro-DAlaNH2] (Ac-[dY][d2Nal][dPhe(4-Cl)][d3Pal]S[NMeY][dK](Nicotinoyl)L[Lys(iPr)]P[dA]-NH2), the Kb was 17.8 pM.
Take `CC(C)C[C@H](NC(=O)[C@@H](CCCCNC(=O)c1cccnc1)NC(=O)[C@H](Cc1ccc(O)cc1)N(C)C(=O)[C@H](CO)NC(=O)[C@@H](Cc1cccnc1)NC(=O)[C@@H](Cc1ccc(Cl)cc1)NC(=O)[C@@H](Cc1ccc2ccccc2c1)NC(=O)CNC(=O)C1=C[C@@H](O)[C@@H](O)[C@H](O)C1)C(=O)N[C@@H](CCCCNC(C)C)C(=O)N1CCC[C@H]1C(=O)N[C@H](C)C(N)=O` [Example 2a, N-Shikimyl-Gly-D2Nal-D4ClPhe-D3Pal-Ser-NMeTyr-DLys(N-epsilon-Nicotinyl) -Leu-Lys(N-epsilon-Isopropyl)-Pro-DAlaNH2] (Shikimoyl-G[d2Nal][dPhe(4-Cl)][d3Pal]S[NMeY][dK](Nicotinoyl)L[Lys(iPr)]P[dA]-NH2): the antagonist equilibrium constant (Kb) is 28.2 pM.
`CC(C)C[C@H](NC(=O)[C@@H](CCCCNC(=O)c1cccnc1)NC(=O)[C@H](Cc1ccc(O)cc1)N(C)C(=O)[C@H](CO)NC(=O)[C@@H](Cc1cccnc1)NC(=O)[C@@H](Cc1ccc(Cl)cc1)NC(=O)[C@@H](Cc1ccc2ccccc2c1)NC(=O)CNC(=O)c1ccco1)C(=O)N[C@@H](CCCCNC(C)C)C(=O)N1CCC[C@H]1C(=O)N[C@H](C)C(N)=O` [Example 2c, N-2-Furoyl-Gly-D2Nal-D4ClPhe-D3Pal-Ser-NMeTyr-DLys(N-epsilon-Nicotinyl) -Leu-Lys(N-epsilon-Isopropyl)-Pro-DAlaNH2] (2Furoyl-G[d2Nal][dPhe(4-Cl)][d3Pal]S[NMeY][dK](Nicotinoyl)L[Lys(iPr)]P[dA]-NH2): the Kb is 7.94 pM.
Regarding `CC(C)C[C@H](NC(=O)[C@@H](CCCCNC(=O)c1cccnc1)NC(=O)[C@H](Cc1ccc(O)cc1)N(C)C(=O)[C@H](CO)NC(=O)[C@@H](Cc1cccnc1)NC(=O)[C@@H](Cc1ccc(Cl)cc1)NC(=O)[C@@H](Cc1ccc2ccccc2c1)NC(=O)CNC(=O)c1ccoc1)C(=O)N[C@@H](CCCCNC(C)C)C(=O)N1CCC[C@H]1C(=O)N[C@H](C)C(N)=O` [Example 2d, N-3Furoyl-Gly-D2Nal-D4ClPhe-D3Pal-Ser-NMeTyr-DLys(N-epsilon-Nicotinyl) -Leu-Lys(N-epsilon-Isopropyl)-Pro-DAlaNH2] (X6-G[d2Nal][dPhe(4-Cl)][d3Pal]S[NMeY][dK](Nicotinoyl)L[Lys(iPr)]P[dA]-NH2), the antagonist dissociation constant (Kb) was 12.6 pM.
As to `CC(C)C[C@H](NC(=O)[C@@H](CCCCNC(=O)c1cccnc1)NC(=O)[C@H](Cc1ccc(O)cc1)N(C)C(=O)[C@H](CO)NC(=O)[C@@H](Cc1cccnc1)NC(=O)[C@@H](Cc1ccc(Cl)cc1)NC(=O)[C@@H](Cc1ccc2ccccc2c1)NC(=O)CNC(=O)c1ccccn1)C(=O)N[C@@H](CCCCNC(C)C)C(=O)N1CCC[C@H]1C(=O)N[C@H](C)C(N)=O` [Example 2e, N-Picolyl-Gly-D2Nal-D4ClPhe-D3Pal-Ser-NMeTyr-DLys(N-epsilon-Nicotinyl) -Leu-Lys(N-epsilon-Isopropyl)-Pro-DAlaNH2] (Picolinoyl-G[d2Nal][dPhe(4-Cl)][d3Pal]S[NMeY][dK](Nicotinoyl)L[Lys(iPr)]P[dA]-NH2; N-terminus assumed), the Kb is 20 pM.
With `CC(C)C[C@H](NC(=O)[C@@H](CCCCNC(=O)c1cccnc1)NC(=O)[C@H](Cc1ccc(O)cc1)N(C)C(=O)[C@H](CO)NC(=O)[C@@H](Cc1cccnc1)NC(=O)[C@@H](Cc1ccc(Cl)cc1)NC(=O)[C@@H](Cc1ccc2ccccc2c1)NC(=O)CNC(=O)c1cccnc1)C(=O)N[C@@H](CCCCNC(C)C)C(=O)N1CCC[C@H]1C(=O)N[C@H](C)C(N)=O` [Example 2f, N-Nicotinyl-Gly-D2Nal-D4ClPhe-D3Pal-Ser-NMeTyr-DLys(N-epsilon-Nicotinyl) -Leu-Lys(N-epsilon-Isopropyl)-Pro-DAlaNH2] (Nicotinoyl-G[d2Nal][dPhe(4-Cl)][d3Pal]S[NMeY][dK](Nicotinoyl)L[Lys(iPr)]P[dA]-NH2) the figure was 8.91 pM; with `CC(C)C[C@H](NC(=O)[C@@H](CCCCNC(=O)c1cccnc1)NC(=O)[C@H](Cc1ccc(O)cc1)N(C)C(=O)[C@H](CO)NC(=O)[C@@H](Cc1cccnc1)NC(=O)[C@@H](Cc1ccc(Cl)cc1)NC(=O)[C@@H](Cc1ccc2ccccc2c1)NC(=O)CNC(=O)c1ccncc1)C(=O)N[C@@H](CCCCNC(C)C)C(=O)N1CCC[C@H]1C(=O)N[C@H](C)C(N)=O` [Example 2g, N-Isonicotinyl-Gly-D2Nal-D4ClPhe-D3Pal-Ser-NMeTyr-DLys(N-epsilon-Nicotinyl) -Leu-Lys(N-epsilon-Isopropyl)-Pro-DAlaNH2] (Isonicotinoyl-G[d2Nal][dPhe(4-Cl)][d3Pal]S[NMeY][dK](Nicotinoyl)L[Lys(iPr)]P[dA]-NH2), 7.08 pM.
With `CC(C)C[C@H](NC(=O)[C@@H](CCCCNC(=O)c1cccnc1)NC(=O)[C@H](Cc1ccc(O)cc1)N(C)C(=O)[C@H](CO)NC(=O)[C@@H](Cc1cccnc1)NC(=O)[C@@H](Cc1ccc(Cl)cc1)NC(=O)[C@@H](Cc1ccc2ccccc2c1)NC(=O)CNC(=O)c1ccccc1O)C(=O)N[C@@H](CCCCNC(C)C)C(=O)N1CCC[C@H]1C(=O)N[C@H](C)C(N)=O` [Example 2h, N-Salicyl-Gly-D2Nal-D4ClPhe-D3Pal-Ser-NMeTyr-DLys(N-epsilon-Nicotinyl) -Leu-Lys(N-epsilon-Isopropyl)-Pro-DAlaNH2] (Salicyloyl-G[d2Nal][dPhe(4-Cl)][d3Pal]S[NMeY][dK](Nicotinoyl)L[Lys(iPr)]P[dA]-NH2), the Kb was 10 pM.
With `CC(C)C[C@H](NC(=O)[C@@H](CCCCNC(=O)c1cccnc1)NC(=O)[C@H](Cc1ccc(O)cc1)N(C)C(=O)[C@H](CO)NC(=O)[C@@H](Cc1cccnc1)NC(=O)[C@@H](Cc1ccc(Cl)cc1)NC(=O)[C@@H](Cc1ccc2ccccc2c1)NC(=O)CNC(=O)[C@@H]1CCCO1)C(=O)N[C@@H](CCCCNC(C)C)C(=O)N1CCC[C@H]1C(=O)N[C@H](C)C(N)=O` [Example 4, N-(S)-Tetrahydrofur-2-oyl-Gly-D2Nal-D4ClPhe-D3Pal-Ser-NMeTyr-DLys(Nicotinyl) -Leu-Lys(N-epsilon-Isopropyl)-Pro-DAlaNH2], the Kb is 7.94 pM.
On to `CC(C)C[C@H](NC(=O)[C@@H](CCCCNC(=O)c1cccnc1)NC(=O)[C@H](Cc1ccc(O)cc1)N(C)C(=O)[C@H](CO)NC(=O)[C@@H](Cc1cccnc1)NC(=O)[C@@H](Cc1ccc(Cl)cc1)NC(=O)[C@@H](Cc1ccc2ccccc2c1)NC(=O)CNC(=O)[C@H]1CCCO1)C(=O)N[C@@H](CCCCNC(C)C)C(=O)N1CCC[C@H]1C(=O)N[C@H](C)C(N)=O` [Example 5, N-(R) Tetrahydrofur-2-oyl-Gly-D2Nal-D4ClPhe-D3Pal-Ser-NMeTyr-DLys(Nicotinyl) -Le u-Lys(N-epsilon-Isopropyl)-Pro-DAlaNH2], for which the antagonist dissociation constant (Kb) is 21.4 pM.
With `CC(C)C[C@H](NC(=O)[C@@H](CCCCNC(=O)c1cccnc1)NC(=O)[C@H](Cc1ccc(O)cc1)N(C)C(=O)[C@H](CO)NC(=O)[C@@H](Cc1cccnc1)NC(=O)[C@@H](Cc1ccc(Cl)cc1)NC(=O)[C@@H](Cc1ccc2ccccc2c1)NC(=O)CCNC(=O)c1cccnc1)C(=O)N[C@@H](CCCCNC(C)C)C(=O)N1CCC[C@H]1C(=O)N[C@H](C)C(N)=O` [Example 6a, N-Nicotinyl-3Aminopropionyl-D2Nal-D4ClPhe-D3Pal-Ser-NMeTyr-DLys(N-epsilon- Nicotinyl) -Leu-Lys(N-epsilon-Isopropyl)-Pro-DAlaNH2] ({Nicotinoyl-βAla}-[d2Nal][dPhe(4-Cl)][d3Pal]S[NMeY][dK](Nicotinoyl)L[Lys(iPr)]P[dA]-NH2) the figure was 8.91 pM; with `CC(C)C[C@H](NC(=O)[C@@H](CCCCNC(=O)c1cccnc1)NC(=O)[C@H](Cc1ccc(O)cc1)N(C)C(=O)[C@H](CO)NC(=O)[C@@H](Cc1cccnc1)NC(=O)[C@@H](Cc1ccc(Cl)cc1)NC(=O)[C@@H](Cc1ccc2ccccc2c1)NC(=O)CCNC(=O)C1=C[C@@H](O)[C@@H](O)[C@H](O)C1)C(=O)N[C@@H](CCCCNC(C)C)C(=O)N1CCC[C@H]1C(=O)N[C@H](C)C(N)=O` [Example 6b, N-Shikimyl-3Aminopropionyl-D2Nal-D4ClPhe-D3Pal-Ser-NMeTyr-DLys(N-epsilon-Nicotinyl) -Leu-Lys(N-epsilon-Isopropyl)-Pro-DAlaNH2] ({Shikimoyl-βAla}-[d2Nal][dPhe(4-Cl)][d3Pal]S[NMeY][dK](Nicotinoyl)L[Lys(iPr)]P[dA]-NH2), 15.8 pM.

One may read the Kb as the equilibrium dissociation constant of an antagonist, usually derived from a functional assay.
